Measured values as given in US8999984B2, “Macrophage migration inhibitory factor antagonists and methods of using same” (University of Louisville Research Foundation, Inc., priority 2006, dated 2015).
Blank lines part the entries; values can stand above or below the molecule they belong to. d = 2'-deoxy (DNA); r = 2'-OH (RNA)

Experiments:
recombinant MIF (rMIF) = molecular target: T1, recombinant MIF (rMIF) (Homo sapiens, UniProt P14174); experiment: L-dopachrome methyl ester tautomerase assay; assay type: biochemical
T1 construct: made in house
T1 sequence (P14174 2-115 limits assumed): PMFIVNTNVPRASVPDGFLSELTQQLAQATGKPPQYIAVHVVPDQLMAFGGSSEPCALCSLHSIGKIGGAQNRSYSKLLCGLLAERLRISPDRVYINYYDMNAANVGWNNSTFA
Method: 500 nM recombinant MIF (rMIF) was pre-mixed for either 5 (filled) or 10 (open) minutes with the indicated inhibitor concentrations followed by the addition of 2 mM final concentration of L-dopachrome methyl ester substrate. 5 minutes later OD 475 was measured spectrophotometrically, with tautomerization leading to colorless substrate.
Dopachrome tautomerase assay. […] MIF catalysis and inhibitory studies can be performed as described (Lubetsky et al., 2002). […] Activity can be determined at room temperature by adding dopachrome methyl ester (0.3 ml) to a cuvette containing 500 nM rMIF (Bernhagen et al., 1994) in 50 mM potassium phosphate buffer, pH 6, 0.5 mM EDTA and 5 minutes later measuring the decrease in absorbance at 475 nm spectrophotometrically. […] Additionally, candidate inhibitors identified in the last section of the present Example can be dissolved in DMSO at various concentrations and added to the cuvette (final concentration of DMSO will be no more than 0.1%) with the MIF 1 minute prior to the addition of the dopachrome substrate.

HIF-1α [1] = experiment: CoCl2-induced HIF-1α stabilization in MIA-PaCa pancreatic adenocarcinoma cells (nuclear lysate immunoblot); assay type: cell-based, human; details: for suppression of HIF-1α, of control: 10 μM
Method: (§1) FIGS. 9A-9C are pictures of immunoblots showing MIF tautomerase inhibitors block HIF-1 stabilization in an MIF-specific manner. […] After 5 hours, nuclear lysates were isolated and subjected to immunoblotting for HIF-1. In FIGS. 9A and 9B, MIA-PaCa pancreatic adenocarcinoma cells were used. In FIG. 9C, MIF+/+ and MIF−/− mouse embryonic fibroblasts were evaluated.
As noted hereinabove, (see FIG. 4), it has been determined that MIF is necessary for hypoxia and prolyl hydroxylase inhibitor-induced HIF-1αstabilization and subsequent hypoxic adaptation of pancreatic adenocarcinoma cells. It was next tested whether MIF pharmacologic inhibitors were capable of recapitulating the destabilizing effects on HIF-1α we had observed using MIF siRNA (FIG. 4). In addition to testing the newly-determined MIF antagonist 4-iodo-6-phenylpyrimidine (also referred to as “compound #16”), the TI compound identified in the Orita screen (FIG. 8) was also tested.

VEGF = experiment: CoCl2-induced VEGF expression and secretion (ELISA); assay type: cell-based; details: read-out: suppression of PHD inhibitor (CoCl2) induced VEGF
Excerpt: It was next tested whether the observed differences in the catalytic inhibitory activities between these two compounds was similarly observed in this biological assay of MIF inhibition. […] Of note, this ˜5 fold difference in biological inhibitory activity closely corresponds to the ˜5 fold difference in enzymatic inhibitory activity that was observed when comparing these two compounds (FIG. 8).

HIF-1α [2] = experiment: Total HIF-1α ELISA, CoCl2-induced HIF stabilization; assay type: cell-based; details: Homo sapiens, compound #16 at 50 μM, read-out: inhibition of CoCl2-induced HIF stabilization, of control
Excerpt: Screening of HIF-1α de-stabilization by candidate MIF inhibitors. The presently disclosed discovery that MIF plays a central role in HIF stability was from studies done in pancreatic adenocarcinoma cell lines. […] This cell line can be utilized for large scale testing of candidate MIF antagonists. In order to scale up this in vitro screen, a DuoSet ELISA-based assay to detect total HIF-1α in human cell lysates can be utilized (R & D Systems). […] MIA-Paca-2 cells can be plated at 5×10^5 cells/well in 24 well plates for 16 hours. Media can be replaced with fresh media containing 0.1% DMSO (− control), 50 μM #16 (+ control) and 5, 50 μM concentrations of test inhibitor, all in duplicate wells. After 1 hour, cells can be challenged with 150 μM CoCl2 for an additional 6 hours. After rinsing the cells twice with PBS, supplied kit lysis buffer can be used to lyse the cells following manufacturer's directions. Prior coating and blocking of HIF-1α capture antibody can be performed according to instructions and diluted cell lysates can be assayed on the HIF-1α ELISA plates.

HIF-1α [3] = experiment: HIF-1α stabilization in MIF-containing and MIF-deficient mouse embryonic fibroblasts; assay type: cell-based; details: FIG. 9C
Method: as §1
Lastly, in order to verify that the effect of #16 on HIF-1α inhibition is through its inhibitory effects on MIF, MIF-containing cells and MIF-deficient cells were tested for inhibitory activity.

[4] = system: A549 human lung adenocarcinoma cells; experiment: A549 anchorage-independent growth in soft agar; assay type: cell-based; details: FIG. 11; for inhibition of A549 soft agar growth: 10, 50 or 100 μM, 20 days
Method: FIG. 11 is a graph showing inhibitors of MIF prevent anchorage-independent growth. 10^5 A549 human lung adenocarcinoma cells were plated in soft agar, containing vehicle (0.1% DMSO) or 10, 50 or 100 μM ISO-1 or 4-iodo-6-phenylpyrimidine (CMPD 16). 20 days later, colonies were stained and enumerated. Data are representative of two independent experiments.

[5] = system: A549 human lung adenocarcinoma cells; experiment: A549 NSCLC xenograft tumor outgrowth; assay type: in vivo, Balb/c (nu/nu) mice; details: 2 mg intraperitoneally every day; vehicle mice developed lesions beginning at day 16; FIG. 12
Method: FIG. 12 is a graph showing Inhibition of NSCLC tumor growth by the MIF inhibitor 4-iodo-6-phenylpyrimidine. Balb/c (nu/nu mice were injected with 1×10^6 A549 human lung adenocarcinoma cells subcutaneously (4 mice/group). Vehicle or 4-iodo-6-phenylpyrimidine (Cmpd 16; 2 mg) were injected intraperitoneally every day for the course of the study. Tumor growth was monitored by palpation every fourth day as indicated. Results are expressed as percent of tumor free mice/group.
In a study designed to evaluate the in vivo efficacy of anti-MIF compounds, 4-iodo-6-phenylpyrimidine (compound #16) was tested in a xenograft model of human non-small cell lung cancer (NSCLC) outgrowth.

endogenous liver MIF = molecular target: T2, endogenous liver MIF (Mus musculus, UniProt P34884); experiment: In vivo inhibition of liver MIF tautomerase activity; set-up: species or system C57BI/6 mice; details: single bolus injection 50 mg/kg, 6 hours post-injection, FIG. 13, read-out: inhibition of endogenous liver MIF enzyme tautomerase activity
T2 construct: from tissue; host or cells: mouse liver homogenate
Method: FIG. 13 is a graph showing the MIF inhibitor 4-iodo-6-phenyl pyrimidine inhibits MIF in vivo. C57BI/6 mice were injected with corn oil or 1 mg 4-iodo-6-phenyl pyrimidine (# 16) suspended in corn oil for 6 hours before removal of the livers. After homogenizing tissue, […] total liver protein was assessed for L-dopachrome methyl ester tautomerase activity.
(§2) A study to determine the MTD and in vivo inhibitory activity of compound #16 was also completed. […] In vivo enzyme inhibition by compound #16 was next analyzed. […] Further, the discovery of the present MIF inhibitory compounds of Formula I disclosed herein by the present novel virtual screening and systematic testing methods validates the present approach and experimental design to identify further MIF small molecule inhibitors.

[6] = MTD / toxicity study, daily injections for 7 days; assay type: in vivo; details: daily injections for 7 days of 0.5, 1, 2 and 4 mg (25, 50, 100 and 200 mg/kg)
Excerpt: as §2

MIF/sCD74 = molecular target: T3, MIF/sCD74 (Homo sapiens, UniProt P14174); experiment: MIF/MIF receptor (CD74) capture assay; assay type: binding; details: 0.1 μM antagonist against 0.2 μM biotinylated MIF (maximal inhibition possible 50%); FIG. 14B
T3 construct: made in house; host or cells: E. coli BL21 (DE3)pLysS (sCD74)
T3 sequence (P14174 2-115 limits assumed): T1 sequence (P14174 2-115 limits assumed)
Method: FIGS. 14A-14C are a schematic (FIG. 14C) of a MIF/MIF receptor capture assay and graphs of data collected from the assay (FIGS. 14A and 14B) that provides a tool for structure-function studies of MIF muteins and candidate inhibitors. […] FIG. 14A is a graph of data from the assay where CD74 coated plates were pre-incubated with the indicated concentrations of native MIF (MIF), denatured MIF or P1G MIF followed by the addition of 0.2 μM biotin-hrMIF. FIG. 14B is a graph of data from the assay where 1.0 μM of denatured MIF (dMIF), native MIF (MIF) or anti-CD74 were pre-incubated with soluble CD74 for 30 mins before adding 0.2 μM biotin-hrMIF. For inhibitors, 0.1 μM ISO-1 or 4-iodo-6-phenyl pyrimidine (Cmp16) were pre-incubated for 30 mins with 0.2 μM biotin-hrMIF before adding mixture to CD74 coated plate. In both FIGS. 14A and 14B, plates were developed 2 hours later by incubating Streptavidin-AP followed by PnPP and measurement at OD405.
As previously noted, the ability of small molecule antagonists to block MIFs biological functions requires the blockade of MIF binding to its cell surface receptor (Meyer-Siegler et al., 2006). […]
96 well plates can be coated with 60 μl/well of purified, soluble CD74 (CD74^73-232) at 0.1 mg/ml and incubated at 4° C. overnight. […] After washing, 60 μl/well of PNPP (Sigma) is added and allowed to develop in the dark until being read at 405 nm.

MIF = MIF depletion by siRNA in MIA-Paca-2 cells (immunoblot); assay type: cell-based, human; details: FIG. 4A
Method: (§3) Nuclear and cytosolic extracts from MIF-depleted cells were exposed to normoxia, anoxia (FIG. 4A) or hypoxia (FIG. 4B) and immunoblotted for HIF-1α. FIG. 4C is a graph showing real time PCR analysis of VEGF mRNA levels from control and MIF-depleted cells exposed to hypoxia for different times.
(§4) MIF-specific siRNA was transfected into MIA-Paca-2 cells before being incubated in 0.2% O2 (anoxia) for 16 hours. […] To more thoroughly investigate the requirements for MIF in hypoxia-mediated HIF-1α stabilization, a time course evaluating MIF containing vs. deficient pancreatic adenocarcinoma cells exposed to 1% O2 (hypoxia) was performed.

HIF-1α [7] = experiment: Anoxia-induced HIF-1α stabilization in siRNA transfected MIA-Paca-2 cells; assay type: cell-based, human; details: 0.2% O2 (anoxia) 16 hours; FIG. 4A
Method: as §3, §4

A549 cells = experiment: A549 cell migration in collagen coated transwell chambers; assay type: cell-based, human; details: FIG. 10B
Method: In FIG. 10A, 500 nM rMIF was pre-mixed for 30 seconds with the indicated inhibitor concentrations followed by the addition of 2 mM final concentration of L-dopachrome methyl ester substrate. 5 minutes later OD 475 was measured spectrophotometrically (tautomerization leads to colorless substrate) and resulting data graphed. In FIG. 10B, 2×10^5 A549 cells transfected or pre-incubated with the indicated inhibitor or DMSO were added to the upper chamber of collagen coated transwell chambers. 16 hours later cells in the upper chamber were removed by swabbing and the bottom of the membranes were stained with crystal violet, solubilized, read at OD 570, and resulting data graphed.

Molecule: O=c1c(-c2ccc(O)c(O)c2)coc2cc(O)ccc12 [TI, 3′, 4′,7-tryhydroxyisoflavone, reference compound]
MIF inhibitory activity in applicant's assay compared with reported Ki (recombinant MIF (rMIF); TI from two commercial sources): several orders of magnitude weaker than claimed
suppression of HIF-1α, of control (HIF-1α [1]; FIG. 9B): no inhibitory activity
inhibition of HIF-1α stabilization (HIF-1α [1]; 50 μM, FIG. 9B): only slight inhibitory activity
inhibition at 50 µM (VEGF): ~20%

Molecule: Ic1cc(-c2ccccc2)ncn1 [compound #16, 4-iodo-6-phenylpyrimidine]
inhibition at 50 µM (HIF-1α [2]): 75 to 90%
HIF-1α stabilization block in MIF-containing fibroblasts (HIF-1α [3]; MIF^+/− murine embryonic fibroblasts): potently blocks
HIF-1α stabilization in MIF-deficient fibroblasts (HIF-1α [3]; MIF^−/− fibroblasts): unaffected
inhibition of A549 soft agar growth [4]: inhibit A549 soft agar growth
potency relative to ISO-1, soft agar growth [4]: 5-10 fold
IC50 (recombinant MIF (rMIF); 500 nM rMIF pre-mixed 5 or 10 min with inhibitor, 2 mM L-dopachrome methyl ester, FIG. 8, read-out: IC50, MIF enzyme (tautomerase) inhibition): ~5 µM
tumor outgrowth (tumor free mice) [5]: remained tumor free
inhibition at 50 mg/kg (endogenous liver MIF): > 50%
suppression of HIF-1α, of control (HIF-1α [1]; FIG. 9B): ~50%
inhibition of CoCl2-induced HIF-1α stabilization (HIF-1α [1]; 100 μM, pancreatic carcinoma cells, FIG. 9A): completely inhibited
difference in biological inhibitory activity (HIF-1α) between #16 and TI (HIF-1α [1]; 4-iodo-6-phenylpyrimidine versus TI): ~5 fold
inhibition at 50 µM (VEGF): > 80%
toxicity [6]: no apparent toxicity
inhibition of MIF receptor (CD74) binding (MIF/sCD74): 50%

Molecule: MIF siRNA: short interfering RNA (siRNA) oligos designed against human MIF; sense SEQ ID NO:3, antisense SEQ ID NO:4 (sense CCUUCUGGUGGGGAGAAAUTT; antisense AUUUCUCCCCACCAGAAGGTT; sugars from the 5' end r19 d2, backbone not given here)
loss of cytoplasmic MIF expression (MIF): greater than 90%
HIF-1α stabilization in nuclei after MIF depletion (HIF-1α [7]): completely deficient

enzyme inhibition at 10 μM (recombinant MIF (rMIF); 10 μM, FIG. 10A): completely inactive
inhibition of MIF receptor (CD74) binding (MIF/sCD74): very efficient blocking
Molecule: COC(=O)CC1CC(c2ccc(O)cc2)=NO1 (stereo not shown) [ISO-1, S, R-3-(4-hydroxyphenyl)-4,5-dihydro-5-isoxazole acetic acid methyl ester, reference compound]
migration inhibition at 10 μM (A549 cells): completely inactive
inhibition of A549 soft agar growth [4]: inhibit A549 soft agar growth
inhibition of CoCl2-induced HIF-1α stabilization (HIF-1α [1]; concentrations of 100 μM or higher): only moderately effective
